According to patent US8088777B2, “Urea derivative” (Shionogi & Co., Ltd., priority 2006, dated 2012):

Molecular target: T1, human NPY Y5 receptor (Homo sapiens, UniProt Q15761)
T1 construct: expressed in transfected cells; membranes used
T1 sequence (Q15761 1-445): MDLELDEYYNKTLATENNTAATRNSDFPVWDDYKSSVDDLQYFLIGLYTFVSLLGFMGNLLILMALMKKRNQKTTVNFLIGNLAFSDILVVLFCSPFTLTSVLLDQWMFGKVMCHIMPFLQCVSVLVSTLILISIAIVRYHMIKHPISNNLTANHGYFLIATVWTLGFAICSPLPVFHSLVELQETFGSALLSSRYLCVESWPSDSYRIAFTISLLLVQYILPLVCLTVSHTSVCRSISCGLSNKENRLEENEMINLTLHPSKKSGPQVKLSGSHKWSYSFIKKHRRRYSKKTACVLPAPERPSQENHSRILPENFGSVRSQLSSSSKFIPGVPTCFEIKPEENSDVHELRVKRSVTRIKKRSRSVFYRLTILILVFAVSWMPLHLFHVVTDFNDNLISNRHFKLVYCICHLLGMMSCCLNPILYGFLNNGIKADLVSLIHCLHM
Assay: Affinity for NPY Y5 receptor: inhibition of [125I] peptide YY binding to membranes of CHO cells expressing NPY Y5 receptor
Conditions: [125I] peptide YY 60 pM, 25° C., 2 hours, read-out: 50% inhibitory concentration of the test compound against the specific peptide YY binding (IC50 value)
Text: cDNA sequence encoding a human NPY Y5 receptor (WO96/16542) was cloned in a vector pME18S (Takebe et al. Mol. Cell. Biol. 8, 8957). The obtained expression vector was transfected into CHO cells as a host by using Lipofect AMINE reagent (Trademark, Gibco BRL Co., Ltd.) according to the instruction […] manual. The cells that stably express NPY Y5 receptor were obtained.
The membranes prepared from the CHO cells expressing NPY Y5 receptor, the compound of the present invention and 30,000 cpm [^125I] peptide YY (60 pM of final concentration: Amersham) were incubated in the assay buffer (20 mM HEPES-Hanks buffer containing 0.1% bovine serum albumin, pH 7.4) at 25° C. for 2 hours, and then the membrane was collected by filtering the mixture through a glassfilter (GF/C) presoaked with 1% polyethyleneimine. After washing with 50 mM Tris-HCl buffer (pH 7.4), radioactivity retained on the filters was quantified with a gamma counter. Nonspecific binding was defined as the amount of radioactivity bound to the membranes after incubation in the presence of 200 nM of peptide YY. The 50% inhibitory concentration of the test compound against the specific peptide YY binding (IC50 value) was calculated (Inui, A. et al. Endocrinology 131, 2090-2096 (1992)).

IC50 | Structure (SMILES)
0.55 nM | CC(C)n1c(=O)oc2cc(NC(=O)N[C@H]3CC[C@H](NS(=O)(=O)C(C)(C)C)CC3)ccc21 [Example II-12]
1.85 nM | CCS(=O)(=O)N(C)C1CCC(N(C)C(=O)Nc2ccc3c(c2)oc(=O)n3C(C)C)CC1 (stereo not drawn) [Example II-2]
0.32 nM | CC(C)n1c(=O)oc2cc(NC(=O)N[C@H]3CC[C@H](NS(=O)(=O)C(C)C)CC3)ccc21 [Example II-14]
